Measured values taken from patent US9850366B2, “Epdxidized fatty acid alkyl ester plasticizers and methods for making epdxidized fatty acid alkyl ester plasticizers” (Dow Global Technologies LLC, priority 2012, dated 2017).

What was measured:
[1] = Water solubility (water content of plasticizer by Karl Fischer titration after mixing with water); type: physicochemical; settings: Table 1; water uptake of plasticizer at room temperature
Experimental: Water Solubility 20 mL of plasticizer is taken in a beaker and mixed with equal volume of distilled water. The mixture is stirred vigorously at room temperature and allowed to settle in a separating funnel. The mixture forms an emulsion which takes approximately 24 hours to form separate layers of organic and aqueous phases. After 48 hours, the two layers are separated. The aqueous layer is drained and the organic layer containing plasticizer and some water is recovered. The organic layer contains water in dissolved form as well as in the fine emulsion form. This layer is centrifuged at 7000 rpm for one hour. This step separates water trapped in the plasticizer in dispersed form. The plasticizer is further analyzed for water content with the help of wet chemistry methods. Carl Fischer titration method is used to determine the water content in plasticizer.

[2] = Solution temperature of PVC in plasticizer (DIN 53408); type: physicochemical; settings: 0.6 g PVC in 15 mL plasticizer, heated at 1° C./min
Experimental: In various embodiments, the polymeric resin (such as PVC) has a solution temperature in the above-described plasticizer of less than 180° C., less than 170° C., or less than 160° C., as determined by Deutsches Institut für Normung (“DIN”) standard method 53 408.
Determine solution temperature in accordance with Deutsches Institut für Normung (“DIN”) 53408. Important test parameters such as the PVC/plasticizer amount and heating rate are optimized to be able to capture differences in solution temperature of different plasticizers in PVC. 0.6 g PVC is accurately weighed in a 20-mL glass vial and 15 mL of plasticizer is added to the PVC. The contents of the glass vial are stirred using a magnetic stirrer and heated using an oil bath at 1° C./min. A thermometer is used to record the temperature of the PVC/plasticizer mixture which is illuminated with a flash-light. When PVC is mixed with a plasticizer, a milky solution is generally obtained. As the temperature of the PVC/plasticizer mixture is raised, the PVC starts to imbibe the plasticizer and becomes translucent. As the temperature is raised further, the PVC particles swell and lose their shape forming a gel. At the solution temperature, a clear solution is obtained.

[3] = type: physicochemical
Experimental: Solubility in PVC is determined according to American Society for Testing and Materials (“ASTM”) method D 3367-98. […] Water solubility of the epoxidized fatty acid alkyl ester is determined according to the procedures described in the Test Methods section, below. Solubility in PVC Measure solubility in PVC according to ASTM D 3367-98. Test parameters, such as the design of centrifuge tubes, soak temperature, soak time, drainage of plasticizer, and centrifuge speed to remove excess plasticizer, are optimized to be able to capture differences in plasticizer absorption and solubilities of different plasticizers in PVC. Centrifuge tubes with a 0.8 mm diameter hole at the bottom are used for the test. […] During the soak time, the plasticizer molecules wet the cell walls of PVC particles and penetrate through it due to its porosity. Once inside, the molecules start filling the void space. After the void space is completely filled with plasticizer, the PVC primary particles start absorbing the plasticizer. This absorption is relatively slow and continues until the primary particles reach saturation limit. It is therefore important to optimize the PVC/plasticizer soaking temperature and time. […] The plasticizer absorbed by PVC is measured from the weight gain of PVC (after accounting for weight gain due to plasticizer absorbed by cotton).

Compound | Water solubility (%) [1] [%] | Solution temperature (° C.) [2] [°C] | Solubility in PVC (g/100 g PVC) [3] [g/100 g PVC]
CCCCCCCCC1OC1CCCCCCCC(=O)OC (stereo not drawn) [Sample S1, epoxidized methyl oleate] | 0.68 | 114 | 
CCCCCC1OC1CC1OC1CCCCCCCC(=O)OC (stereo not drawn) [Sample S2, epoxidized methyl linoleate] |  | 88 | 244
CCCCCCCC[C@H]1O[C@H]1CCCCCCCC(=O)OC(C)C [Sample S7] |  | 134 | 34.1

Results, then the compound that gave them:

Water solubility (%) [1] [%] | Solution temperature (° C.) [2] [°C] | Solubility in PVC (g/100 g PVC) [3] [g/100 g PVC] | Compound
 | 124 |  | epoxidized methyl linolenate [CS2, reference compound]
 | 98 |  | epoxidized methyl linolenate [CS3, reference compound]
 | 98 |  | epoxidized methyl linolenate [CS4, reference compound]
